Read-outs that look alike come from different tables or passages of the source. Square brackets hold non-standard residues; d marks the D form. Peptide text beside a SMILES is read from it. * marks the point of attachment. OAll = C=CCO*
Assays:
[1] = biological target: T1, KDR receptor (VEGFR2) (Homo sapiens, UniProt P35968); experiment: Inhibition of 125I-VEGF binding to KDR receptor on CHOm VEGFR2 cells; conditions: for inhibiting binding of VEGF to the KDR receptor (in words): 125I-VEGF
T1 construct: expressed in transfected cells; host or cells: heparan sulfate deficient Chinese hamster ovary cells (CHOm VEGFR2), VEGFR2 cDNA in psV-7d vector
T1 sequence (P35968 20-1356, species assumed): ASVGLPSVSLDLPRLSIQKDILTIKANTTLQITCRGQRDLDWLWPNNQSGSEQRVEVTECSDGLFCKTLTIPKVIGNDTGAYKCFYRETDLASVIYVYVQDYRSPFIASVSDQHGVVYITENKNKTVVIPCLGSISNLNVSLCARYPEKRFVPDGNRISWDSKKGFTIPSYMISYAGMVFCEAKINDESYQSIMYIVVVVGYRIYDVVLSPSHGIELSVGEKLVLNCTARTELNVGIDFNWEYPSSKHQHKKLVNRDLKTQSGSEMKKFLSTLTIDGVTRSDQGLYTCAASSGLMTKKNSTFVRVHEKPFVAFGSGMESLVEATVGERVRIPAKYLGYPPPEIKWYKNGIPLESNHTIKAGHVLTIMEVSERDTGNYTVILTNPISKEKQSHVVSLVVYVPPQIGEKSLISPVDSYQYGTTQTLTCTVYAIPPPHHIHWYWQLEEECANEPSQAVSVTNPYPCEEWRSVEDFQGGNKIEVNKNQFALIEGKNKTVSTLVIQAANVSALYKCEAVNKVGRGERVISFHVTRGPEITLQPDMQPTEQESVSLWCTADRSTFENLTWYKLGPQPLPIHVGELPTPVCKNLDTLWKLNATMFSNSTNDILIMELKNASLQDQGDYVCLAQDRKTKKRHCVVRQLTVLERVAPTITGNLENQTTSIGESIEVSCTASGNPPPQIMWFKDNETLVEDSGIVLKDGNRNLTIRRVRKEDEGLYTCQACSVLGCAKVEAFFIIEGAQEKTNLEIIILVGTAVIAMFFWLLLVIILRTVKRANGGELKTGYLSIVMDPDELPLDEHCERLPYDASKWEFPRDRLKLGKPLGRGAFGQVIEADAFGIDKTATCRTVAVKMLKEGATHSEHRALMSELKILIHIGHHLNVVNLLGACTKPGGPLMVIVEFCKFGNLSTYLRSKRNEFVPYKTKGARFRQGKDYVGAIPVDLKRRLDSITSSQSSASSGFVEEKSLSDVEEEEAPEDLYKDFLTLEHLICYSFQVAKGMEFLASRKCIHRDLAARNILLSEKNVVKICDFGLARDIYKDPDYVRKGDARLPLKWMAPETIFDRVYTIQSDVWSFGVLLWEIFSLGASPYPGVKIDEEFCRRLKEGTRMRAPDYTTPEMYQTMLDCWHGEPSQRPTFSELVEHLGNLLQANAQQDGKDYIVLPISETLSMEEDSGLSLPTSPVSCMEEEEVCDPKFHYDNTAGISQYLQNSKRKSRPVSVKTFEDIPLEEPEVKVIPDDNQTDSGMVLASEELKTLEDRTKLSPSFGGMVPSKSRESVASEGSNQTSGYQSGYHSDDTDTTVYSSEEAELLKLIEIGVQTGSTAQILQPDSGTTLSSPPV
Experimental: The P1 to P24 peptides are tested as concerns their property of inhibition of the binding of VEGF to its KDR receptor.
For these tests, heparin sulfate deficient Chinese hamster ovarian cells that are transfected with an expression vector containing VEGFR2cDnA (CHOm VEGFR2 cells) are used.
The CHOm VEGFR2 cells are routinely cultured in Dulbecco modified Eagle medium and supplemented with 10% (v/v) fetal calf serum (FCS), 50 U/ml penicillin, 50 μg/ml streptomycin, 1 mg/ml glucose and 2 mM L-glutamine at 37° C. in a 5% CO2 atmosphere.
The subconfluent flasks are transferred at 4° C. […] At the end of the incubation period, the cells are washed 3 times using iced PBS and solubized in 1 mL of buffer with 2% Triton X 100, 10% glycol, 1 mg/mL bovine serum albumin BSA. The radioactivity rate bound to the cells is counted in an MR-250 Kontron gamma counter. […] Specific binding is calculated by subtracting non-specific binding from total binding.
These assays are continued using the cyclopeptides of interest and two linear peptides as controls for an inhibition analysis as a function of dose.

[2] = test system: endothelial cells; experiment: VEGF-stimulated endothelial cell migration (monolayer denudation); format: cell-based; conditions: 10 ng/mL VEGF
Experimental: Cellular migration is measured according to the method described by Sato and Rifkin (J. Cell Biol., September, 1988, (107 (3): 1199–205) [17] with modifications. 100,000 endothelial cells are placed in 35 mm culture flasks in DMEM medium containing 10% fetal calf serum. On confluence, the medium is replaced by DMEM medium without serum and the cells are incubated overnight. On the next day, denudation is done artificially in the monolayer using a sterile pipette tip. A series of digital photographs is taken and the border of denudation is marked by a line using the BiocomVisionLab2000 program. The flasks are then rinsed and incubated with 10 ng/mL VEGF in the presence or absence of peptide. After 18 hours of incubation a new series of photographs is taken and the before and after stimulation images are superimposed. The cells situated beyond the border of denudation are counted.

[3] = test system: endothelial cells; experiment: VEGF-stimulated endothelial cell proliferation (cell count); format: cell-based; conditions: 10 ng/mL of VEGF
Experimental: Cellular proliferation is measured by cell count. 7,000 endothelial cells are placed in the wells of 24-well plates (Costar) in DMEM medium containing newborn bovine serum. […] Two days later, the cells area once again stimulated by VEGF in the presence or absence of different concentrations of peptide. At the fifth day, the cells are trypsinized and counted using a Coulter counter.

[4] = test system: ERK2 (p42); experiment: VEGF-induced phosphorylation of ERK2 (p42), Western blot, capillary endothelial cells; format: cell-based; conditions: p42 and p44 together, 10 ng/mL of VEGF
Experimental: Phosphorylation of ERK1 (p44) and ERK2 (p42) is measured by Western blot using anti p42/p44 antibodies (New England Biolabs). The capillary endothelial cells are cultivated in DMEM containing 10% newborn bovine serum. Subconfluent cultures are then deprived of serum over a period of 24 hours. The peptides are then added at specific concentrations over 5 minutes to the cells in the presence or absence of 10 ng/mL of VEGF. The cells are then removed from the culture flasks and lysed for 20 minutes over ice in lysis buffer containing […], pH 7.4, 75 mM NaCl, 1 mM EDTA, 1% Nonidet P-40 and 0.01% of SDS. The insoluble material is removed by centrifugation and 50 μg/mL of protein extract are separated by polyacrylamide gel electrophoresis containing sodium dodecyl sulfate (SDS) under denaturing conditions. The proteins are then transferred from the gel onto a nitrocellulose membrane (Amersham Pharmacia Biotech, Orsay) using a transfer apparatus (semi-dry transfer, Bio-Rad, Irvy-sur-Seine, France). […] The results are quantified using the Image Quant program (Molecular Dynamics).
The assays were done as indicated. […] The degree of phosphorylation is estimated after quantification of the signals obtained using autoradiographic films and the results are expressed in percent inhibition relative to the signal obtained using 10 ng/mL of VEGF alone.

[5] = CHOm VEGFR2 cells, 5 ng/mL 125I-VEGF, 2 hours at 4° C.

Molecule: C=CCOC(=O)[C@H](CCC(=O)O)NC(=O)CNC(=O)[C@@H](NC(=O)[C@H](Cc1c[nH]cn1)NC(=O)[C@H](CCC(N)=O)NC(=O)CNC(=O)[C@H](CCC(N)=O)NC(=O)[C@H](Cc1c[nH]cn1)NC(=O)[C@@H]1CCCN1C(=O)[C@H](CCCCN)NC(=O)[C@@H](NC(=O)[C@H](CCCNC(=N)N)NC(=O)[C@H](CCSC)NC(=O)[C@@H](NC(=O)[C@@H](N)CCC(N)=O)[C@@H](C)CC)[C@@H](C)CC)[C@@H](C)CC [Peptide P10] (H-QIMRIKPHQGQHIGE-OAll)
- IC50 [1]: > 300 µM

Molecule: CC[C@H](C)[C@@H]1NC(=O)[C@H](CCC(N)=O)NC(=O)[C@H](CCC(=O)O)NC(=O)[C@H](CCC(N)=O)NC(=O)[C@H](Cc2c[nH]cn2)NC(=O)[C@@H]2CCCN2C(=O)[C@H](CCCCN)NC(=O)[C@H]([C@@H](C)CC)NC(=O)[C@H](CCCNC(=N)N)NC(=O)[C@H](CCSC)NC1=O [Peptide P22, reference compound] (cyclo(EQIMRIKPHQ))
- IC50 [1]: > 300 µM

Molecule: CC[C@H](C)[C@@H]1NC(=O)[C@H](Cc2c[nH]cn2)NC(=O)[C@H](CCC(N)=O)NC(=O)CNC(=O)[C@H](CCC(N)=O)NC(=O)[C@H](Cc2c[nH]cn2)NC(=O)[C@@H]2CCCN2C(=O)[C@H](CCCCN)NC(=O)[C@H]([C@@H](C)CC)NC(=O)[C@H](CCCNC(=N)N)NC(=O)[C@H](CCSC)NC(=O)[C@H]([C@@H](C)CC)NC(=O)[C@H](CCC(N)=O)NC(=O)[C@H](CCC(=O)O)NC(=O)CNC1=O [Peptide P19] (cyclo(QIMRIKPHQGQHIGE))
- inhibiting binding of VEGF to the KDR receptor (in words) ([1]; CHOm VEGFR2 cells): very effective

Molecule: H-QIMRIKPHQGQHIG-OH [Peptide P5]
- IC50 [1]: > 300 µM

Molecule: CC[C@H](C)[C@@H]1NC(=O)[C@H](Cc2c[nH]cn2)NC(=O)[C@H](CCC(N)=O)NC(=O)CNC(=O)[C@H](CCC(N)=O)NC(=O)[C@H](Cc2c[nH]cn2)NC(=O)[C@@H]2CCCN2C(=O)[C@H](CCCCN)NC(=O)[C@H]([C@@H](C)CC)NC(=O)[C@H](CCCNC(=N)N)NC(=O)[C@H](CCSC)NC(=O)[C@H]([C@@H](C)CC)NC(=O)[C@H](CCC(N)=O)NC(=O)[C@@H]2CCCN2C(=O)[C@@H](Cc2ccccc2)NC(=O)CNC1=O [Peptide P20] (cyclo([dF]PQIMRIKPHQGQHIG))
- IC50 [1]: 10 µM
- inhibiting binding of VEGF to the KDR receptor (in words) ([1]; CHOm VEGFR2 cells): very effective

Molecule: CC[C@H](C)[C@@H]1NC(=O)[C@H](Cc2c[nH]cn2)NC(=O)[C@H](CCC(N)=O)NC(=O)CNC(=O)[C@H](CCC(N)=O)NC(=O)[C@H](Cc2c[nH]cn2)NC(=O)[C@@H]2CCCN2C(=O)[C@H](CCCCN)NC(=O)[C@H]([C@@H](C)CC)NC(=O)[C@H](CCCNC(=N)N)NC(=O)[C@H](CCSC)NC(=O)[C@H]([C@@H](C)CC)NC(=O)[C@H](CCC(N)=O)NC(=O)[C@@H]2CCCN2C(=O)[C@H](CCC(=O)O)NC(=O)CNC1=O [Peptide P13] (cyclo(EPQIMRIKPHQGQHIG))
- IC50 [1]: > 300 µM

Molecule: H-QIMRIKPH-OH [Peptide P2]
- IC50 [1]: > 300 µM

Molecule: H-QIMRIKPHQGQHIGE-OH [Peptide P4]
- IC50 [1]: > 300 µM

Molecule: H-RIKPHQG-OH [Peptide P3, H-Arg-Ile-Lys-Pro-His-Gln-Gly-OH]
- IC50 [1]: > 300 µM

Molecule: H-GQIMRIKPHQGQHIGE-OH [Peptide P15]
- IC50 [1]: > 300 µM

Molecule: CC[C@H](C)[C@@H]1NC(=O)[C@H](CCCNC(=N)N)NC(=O)[C@@H]2CCCN2C(=O)[C@@H](Cc2ccc(O)cc2)NC(=O)[C@H](CCC(N)=O)NC(=O)[C@H](Cc2c[nH]cn2)NC(=O)[C@@H]2CCCN2C(=O)[C@H](CCCCN)NC1=O [Peptide P23] (cyclo([dY]PRIKPHQ))
- inhibiting binding of VEGF to the KDR receptor (in words) ([1]; CHOm VEGFR2 cells): very effective

Molecule: CC[C@H](C)[C@@H]1NC(=O)[C@H](CCCNC(=N)N)NC(=O)[C@@H]2CCCN2C(=O)CNC(=O)[C@H](CCC(N)=O)NC(=O)[C@H](Cc2c[nH]cn2)NC(=O)[C@@H]2CCCN2C(=O)[C@H](CCCCN)NC1=O [Peptide P17] (cyclo(PRIKPHQG))
- IC50 [1]: 10 µM
- inhibiting binding of VEGF to the KDR receptor (in words) ([1]; CHOm VEGFR2 cells): very effective

Molecule: CC[C@H](C)[C@H](NC(=O)[C@H](CCCNC(=N)N)NC(=O)CN)C(=O)N[C@@H](CCCCN)C(=O)N1CCC[C@@H]1C(=O)N[C@@H](Cc1c[nH]cn1)C(=O)N[C@@H](CCC(N)=O)C(=O)NCC(=O)N[C@@H](CCC(N)=O)C(=O)N[C@@H](Cc1c[nH]cn1)C(=O)O [Peptide P6, H-Gly-Arg-Ile-Lys-DPro-His-Gln-Gly-Gln-His-OH] (H-GRIK[dP]HQGQH-OH)
- IC50 [1]: > 300 µM

Molecule: CC[C@H](C)[C@@H]1NC(=O)[C@H](CCCNC(=N)N)NC(=O)CNC(=O)[C@H](Cc2c[nH]cn2)NC(=O)[C@@H]2CCCN2C(=O)[C@H](CCCCN)NC1=O [Peptide P24, cyclo(Gly-Arg-Ile-Lys-Pro-His)] (cyclo(GRIKPH))
- IC50 [1, 5]: 8 µM
- inhibiting binding of VEGF to the KDR receptor (in words) ([1]; CHOm VEGFR2 cells): very effective

Molecule: CC[C@H](C)[C@@H]1NC(=O)[C@H](CCCNC(=N)N)NC(=O)CNC(=O)[C@H](Cc2c[nH]cn2)NC(=O)CNC(=O)[C@H](CCC(N)=O)NC(=O)[C@H](Cc2c[nH]cn2)NC(=O)[C@@H]2CCCN2C(=O)[C@H](CCCCN)NC1=O [Peptide P8] (cyclo(GRIKPHQGH))
- IC50 [1, 5]: 200 µM

Molecule: H-PQIMRIKPHQGQHIGE-OH [Peptide P14]
- IC50 [1]: > 300 µM

Molecule: CC[C@H](C)[C@@H]1NC(=O)[C@H](CCCNC(=N)N)NC(=O)CNC(=O)[C@H](Cc2c[nH]cn2)NC(=O)[C@H](CCC(N)=O)NC(=O)CNC(=O)[C@H](CCC(N)=O)NC(=O)[C@H](Cc2c[nH]cn2)NC(=O)[C@H]2CCCN2C(=O)[C@H](CCCCN)NC1=O [Peptide P7, cyclo(Gly-Arg-Ile-Lys-DPro-His-Gln-Gly-Gln-His)] (cyclo(GQHGRIK[dP]HQ))
- IC50 [1]: > 300 µM

Molecule: CC[C@H](C)[C@@H]1NC(=O)[C@H](CCCNC(=N)N)NC(=O)CNC(=O)[C@H](CCC(N)=O)NC(=O)[C@H](Cc2c[nH]cn2)NC(=O)[C@@H]2CCCN2C(=O)[C@H](CCCCN)NC1=O [Peptide P16, cyclo(Arg-Ile-Lys-Pro-His-Gln-Gly)] (cyclo(RIKPHQG))
- inhibiting binding of VEGF to the KDR receptor (in words) ([1]; CHOm VEGFR2 cells): very effective

Molecule: CC[C@H](C)[C@@H]1NC(=O)[C@H](CCCNC(=N)N)NC(=O)[C@H](CCSC)NC(=O)[C@H]([C@@H](C)CC)NC(=O)[C@@H]2CCCN2C(=O)[C@@H](Cc2ccccc2)NC(=O)[C@H]([C@@H](C)CC)NC(=O)[C@H](Cc2c[nH]cn2)NC(=O)[C@H](CCC(N)=O)NC(=O)CNC(=O)[C@H](CCC(N)=O)NC(=O)[C@H](Cc2c[nH]cn2)NC(=O)[C@@H]2CCCN2C(=O)[C@H](CCCCN)NC1=O [Peptide P21] (cyclo(GQHI[dF]PIMRIKPHQ))
- IC50 [1]: 200 µM

Molecule: H-RIKPH-OH [Peptide P1, H-Arg-Ile-Lys-Pro-His-OH]
- IC50 [1, 5]: > 300 µM

Molecule: CC[C@H](C)[C@@H]1NC(=O)[C@H](Cc2c[nH]cn2)NC(=O)[C@H](CCC(N)=O)NC(=O)CNC(=O)[C@H](CCC(N)=O)NC(=O)[C@H](Cc2c[nH]cn2)NC(=O)[C@@H]2CCCN2C(=O)[C@H](CCCCN)NC(=O)[C@H]([C@@H](C)CC)NC(=O)[C@H](CCCNC(=N)N)NC(=O)[C@H](CCSC)NC(=O)[C@H]([C@@H](C)CC)NC(=O)[C@H](CCC(N)=O)NC(=O)[C@@H]2CCCN2C(=O)[C@@H](Cc2ccccc2)NC(=O)[C@H](CCC(=O)O)NC(=O)CNC1=O [Peptide P11] (cyclo([dF]PQIMRIKPHQGQHIGE))
- inhibiting binding of VEGF to the KDR receptor (in words) ([1]; CHOm VEGFR2 cells): very effective
- inhibition of cellular migration (in words) [2]: strongly inhibits
- inhibition of cellular proliferation (in words) [3]: strong inhibition
- inhibition of phosphorylation of p42/p44 (in words) [4]: strongly inhibits

Molecule: CC[C@H](C)[C@@H]1NC(=O)[C@H](Cc2c[nH]cn2)NC(=O)[C@H](CCC(N)=O)NC(=O)CNC(=O)[C@H](CCC(N)=O)NC(=O)[C@H](Cc2c[nH]cn2)NC(=O)[C@@H]2CCCN2C(=O)[C@H](CCCCN)NC(=O)[C@H]([C@@H](C)CC)NC(=O)[C@H](CCCNC(=N)N)NC(=O)[C@H](CCSC)NC(=O)[C@H]([C@@H](C)CC)NC(=O)[C@H](CCC(N)=O)NC(=O)CNC(=O)[C@H](CCC(=O)O)NC(=O)CNC1=O [Peptide P12] (cyclo(EGQIMRIKPHQGQHIG))
- IC50 [1]: 300 µM

Molecule: CC[C@H](C)[C@@H]1NC(=O)[C@H](CCCNC(=N)N)NC(=O)[C@@H]2CCCN2C(=O)[C@H](Cc2c[nH]cn2)NC(=O)[C@H](CCC(N)=O)NC(=O)CNC(=O)[C@H](CCC(N)=O)NC(=O)[C@H](Cc2c[nH]cn2)NC(=O)[C@@H]2CCCN2C(=O)[C@H](CCCCN)NC1=O [Peptide P9] (cyclo(GQHPRIKPHQ))
- IC50 [1]: 300 µM
